Measured values as given in paper PMC9516563 (JACS Au, 2022).

Experiments:
[1] = Liposome dye leakage assay; details: read-out: liposome EC50 (dye leakage); 200 nm liposomes filled with 50 mM carboxyfluorescein, 30 min incubation
[2] = system: SARS-CoV-2; assay type: cell-based, SARS-CoV-2 isolate BetaCoV/France/IDF0372/2020
[3] = system: SARS-CoV-2 spike pseudoparticles; assay type: cell-based; details: read-out: IC50 against SARS-CoV-2 spike-mediated transduction
[4] = system: IAV; assay type: cell-based, Influenza strain A/PR/8/34 (H1N1; PR8); details: read-out: IAV IC50
[5] = system: SARS-CoV-2 virions; set-up: species or system SARS-CoV-2 isolate BetaCoV/France/IDF0372/2020

With `O=C(O)COc1c2c(c(OCC(=O)O)c3c1C1CC3c3cc4c(cc31)C1CC4c3ccccc31)C1CC2c2cc3c(cc21)C1CC3c2ccccc21` [CLR05] the EC50 [1] was 121 µM, the “inhibition of virus infection” value [2] was about 70% and the IC50 ([2]; read-out: SARS-CoV-2 IC50) was 167 µM. For the same molecule, the IC50 [3] was 33 µM, the IC50 [4] was 70.3 µM and the “morphology of treated SARS-CoV-2 virions (TEM)” value [5] was “largely disrupted”.
